# Data as given in US20130178437A1, “CONJUGATES COMPRISING HYDROXYALKYL STARCH AND A CYTOTOXIC AGENT AND PROCESS FOR THEIR PREPARATION” (priority 2010, published 2013).
# Marks after values point to notes of the source that are not given here.
# Assays:
# [1] = tested on: human ovarian cancer carcinoma ovcar-3; experiment: Tumor growth inhibition, s.c. ovcar-3 xenografts in nude mice (doxorubicin conjugates); assay type: in vivo, NMRI:nu/nu mice; details: Table 13; 8 mg/kg/inj. i.v., treatment d 5
# From the text: (§1) For all in vivo studies in which doxorubicin conjugates wer administred, adult female NMRI:nu/nu mice (TACONIC Europe, Lille Skensved, Denmark) were used throughout the study.
# (§2) The human breast cancer carcinoma MT-3, human ovarian cancer carcinoma ovcar-3 and human mamma carcinoma MT3-ADR were used as s.c. xenotransplantation model in immunodeficient female […] mice (see table 17).
# (§3) The cells were obtained from ATCC and are cryo-preserved within the EPO tumor bank. They were thawed, expanded in vitro and transplanted as cell suspension subcutaneously (s.c.) in female NMRI:nu/nu mice. The tumor lines MT-3, ovcar-3 and MT3-ADR are used for testing new anticancer drugs or novel therapeutic strategies. It was therefore selected for this study. MT-3, ovcar-3 and MT3-ADR xenografts are growing relatively fast and uniform.
# (§4) For experimental use 5*10^6 to 10^7 tumor cells/mouse from the in vitro passage were transplanted s.c. into the flank of each of 10 mice/group at day 0.
# (§5) At palpable tumor size (30-100 mm^3) treatment started. The application volume was 0.2 ml/20 g mouse body weight. The test compounds, the vehicle controls and the reference compounds were all given intravenously (i.v.).
# (§6) Tumor growth inhibition was used as therapeutic parameter. Additionally, body weight change was determined as signs for toxicity (particularly, potential hematological or gastrointestinal side effects).
# (§7) Tumor diameters were measured twice weekly with a caliper. Tumor volumes were calculated according to V=(length×(width)^2)/2. For calculation of the relative tumor volume (RTV) the tumor volumes at each measurement day were related to the day of first treatment. At each measurement day the median and mean tumor volumes per group and also the treated to control (T/C) values in percent were calculated (Table 10 to 15).
# (§8) Descriptive statistics were performed on the data of body weight and tumor volume. […] Statistical evaluation was performed with the U-test of Mann and Whitney with a significance level of p≦0.05, using the Windows program […] 6. […]
# [2] = tested on: human breast cancer carcinoma MT-3; experiment: Tumor growth inhibition, s.c. MT-3 xenografts in nude mice (doxorubicin conjugates); assay type: in vivo, NMRI:nu/nu mice; details: 8 mg/kg/inj. i.v.
# From the text: as §1, §2, §3, §4, §5, §6, §7
# Descriptive statistics were performed on the data of body weight and tumor volume. […] Statistical evaluation was performed with the U-test of Mann and Whitney with a significance level of p≦0.05, using the Windows program […] 6.
# The tested Doxorubicin conjugates CDx1 to CDx15 were obtained as described herein above and were kept in a freeze-dried form at −20° C. until the use. Before administration, the conjugates were dissolved in saline solution by vortexing in combination with centrifugation until a clear solution of the necessary concentration of the drug was obtained. The obtained solutions were prepared and injected under sterile conditions.
# The reference compound was Doxorubicin (which is, for example, available as Doxorubicin NC® from Neocorp). Doxorubicin was stored in aliquots at 4° C. in the dark and diluted in saline before administration.
# (§9) Tables 10 to 15 summarize the results for the tested, Doxorubicin conjugates and the reference compound Doxorubicin.
# [3] = Body weight change and toxic deaths in xenograft-bearing mice (doxorubicin studies); assay type: in vivo, NMRI:nu/nu mice; details: for Toxic deaths: 7 mice
# Method: as §1, §5, §6
# Individual body weights of mice were determined twice weekly and mean body weight per group was related to the initial value in percent (body weight change, BWC).
# On the day of necropsy the mice were sacrificed by cervical dislocation and inspected for gross organ changes.
# as §9
# The loss of body weight is known to be an indicator of gastro-intestinal and hepatotoxicity of the tested compound.
# [4] = tested on: human mamma carcinoma MT3-ADR; experiment: Tumor growth inhibition, s.c. MT3-ADR xenografts in nude mice (doxorubicin conjugates); assay type: in vivo, NMRI:nu/nu mice; details: Table 14; 8 mg/kg/inj. i.v., treatment d 10
# From the text: as §1, §2, §3, §4, §5, §6, §7, §8
# [5] = tested on: human breast cancer carcinoma MT-3; experiment: Tumor growth inhibition, s.c. MT-3 xenografts in nude mice (epirubicin and idarubicin conjugates); assay type: in vivo, NMRI-nu/nu nude mice; details: MT-3 subtype obtained from a different laboratory; unmodified drug
# Method: All experiments were performed using 5-6 weeks old female NMRI^−nu/nu nude mice (approximate weight: 30 g after acclimatization). Mice were maintained in individual ventilated cages (IVC, max. 3 mice/cage) at constant temperature and humidity. Animal weights were taken every other day (Monday, Wednesday and Friday). Animal behavior was monitored daily. At study end, animals were sacrificed and in case the tumor volume was measured a necropsy was performed.
# Monolayers of MT-3 cells were grown in DMEM 4500 with phenol red supplement with 10% FCS, 1% L-Glutamine, 100 units penicillin/ml, and 100 μg of streptomycin/ml. MT-3 cells were cultured in a humidified atmosphere of 90% air and 10% carbon dioxide at 37° C. Media were routinely changed every 3 days.
# For experimental use 5×10^6 to 10^7 tumor cells/mouse from the in vitro passage were transplanted s.c. into the flank of each of 10 mice/group at day 0.
# At palpable tumor size (30-100 mm^3) treatment was started. The application volume was 0.2 ml/20 g mouse body weight. The test compounds, the vehicle controls and the reference compounds were all given intravenously (i.v.).
# Tumor growth inhibition was used as therapeutic parameter. Additionally, body weight change was determined as signs for toxicity (particularly, potential hematological or gastrointestinal side effects). […]
# [6] = Table 13, ovcar-3 model, 8 mg/kg/inj. i.v., treatment d 5
# [7] = Table 14, MT3-ADR model, 8 mg/kg/inj. i.v., treatment d 10
compound,measurement,setting,value
COc1cccc2c1C(=O)c1c(O)c3c(c(O)c1C2=O)C[C@@](O)(C(=O)CO)C[C@@H]3O[C@H]1C[C@H](N)[C@H](O)[C@H](C)O1 [Doxorubicin],RTV T/C (%) Optimum,[1],37.1%
same,RTV T/C (%) Optimum (at day),[1],(19) day
same,Tumor growth RTV d 39,[1],9.86 +/− 7.98
same,T/C (%) (TV) at the end,"[2]; Table 10, treatment d 7, 14",1.16 +/− 0.35%
same,T/C (%) Optimum,"[2]; Table 10, treatment d 7, 14",32.2%
same,T/C (%) Optimum (at day),"[2]; Table 10, treatment d 7, 14",(18) day
same,Tumor growth RTV d 28,"[2]; Table 10, treatment d 7, 14",10.8 +/− 3.7
same,T/C (%) Optimum,"[2]; Table 11, treatment d 10",30%
same,T/C (%) Optimum (at day),"[2]; Table 11, treatment d 10",(21) day
same,Tumor growth RTV d 28,"[2]; Table 11, treatment d 10",4.3 +/− 3.4
same,RTV T/C (%) Optimum,"[2]; Table 12, treatment d 7",39.2%
same,RTV T/C (%) Optimum (at day),"[2]; Table 12, treatment d 7",(29) day
same,Tumor growth RTV d 33,"[2]; Table 12, treatment d 7",5.59 +/− 0.78*
same,T/C (%) Optimum,"[2]; Table 15, treatment d 7",37.8%
same,T/C (%) Optimum (at day),"[2]; Table 15, treatment d 7",(13) day
same,Tumor growth RTV d 20,"[2]; Table 15, treatment d 7",8.1 +/− 2.1*
same,BWC (%) (d 10/d 28),"[3]; Table 11, MT-3 model, 8 mg/kg/inj. i.v., treatment d 10",2%
same,BWC [%] (at day),"[3]; Table 12, MT-3 model, 8 mg/kg/inj. i.v., treatment d 7",(19) day
same,BWC [%],"[3]; Table 12, MT-3 model, 8 mg/kg/inj. i.v., treatment d 7, maximum body weight loss",−2%
same,BWC [%] (at day),[3]; [6],(7) day
same,Toxic deaths,[3]; [6],0
same,BWC [%],"[3]; Table 13, ovcar-3 model, 8 mg/kg/inj. i.v., treatment d 5, maximum body weight loss",−4%
same,BWC [%] (at day),[3]; [7],(25) day
same,Toxic deaths,[3]; [7],0
same,BWC [%],"[3]; Table 14, MT3-ADR model, 8 mg/kg/inj. i.v., treatment d 10, maximum body weight loss",−8%
same,BWC (%) (d 7/d 20),"[3]; Table 15, MT-3 model, 8 mg/kg/inj. i.v., treatment d 7",−6%
same,BWC (%): day of maximum body weight loss,"[3]; mouse, in vivo, iv, 8 mg/kg",(d 24)
same,BWC [%],"[3]; mouse, in vivo, iv, 8 mg/kg",−8%
same,RTV T/C (%) Optimum,[4],58.4%
same,RTV T/C (%) Optimum (at day),[4],(29) day
same,Tumor growth RTV d 31,[4],15.3 +/− 5.9*
CC(=O)[C@]1(O)Cc2c(O)c3c(c(O)c2[C@@H](O[C@H]2C[C@H](N)[C@H](O)[C@H](C)O2)C1)C(=O)c1ccccc1C3=O [Idarubicin],sensibility of the MT-3 subtype towards anthracycline therapy,[5],no sensibility towards anthracycline therapy
COc1cccc2c1C(=O)c1c(O)c3c(c(O)c1C2=O)C[C@@](O)(C(=O)CO)C[C@@H]3O[C@H]1C[C@H](N)[C@@H](O)[C@H](C)O1 [Epirubicin],sensibility of the MT-3 subtype towards anthracycline therapy,[5],no sensibility towards anthracycline therapy
